Assay results taken from ChEMBL document CHEMBL1201862, “PubChem BioAssay data set” (2004).
The source made the active and inactive calls.

How the values were obtained:
Vero = assay: cells; format: functional; conditions: Chlorocebus sabaeus
[1] = molecular target: 5-hydroxytryptamine receptor 5A (Homo sapiens, UniProt P47898); assay: Counterscreen for agonists of OPRM1-OPRD1 heterodimerization: luminescence-based cell-based high throughput dose response assay to identify agonists of 5-hydroxytryptamine (serotonin) 5A receptor (HTR5A). [Related pubchem assays (depositor defined):AID504326, AID504355, AID504692, AID504904, AID504905]; format: functional
5-hydroxytryptamine receptor 5A, sequence (P47898 whole entry): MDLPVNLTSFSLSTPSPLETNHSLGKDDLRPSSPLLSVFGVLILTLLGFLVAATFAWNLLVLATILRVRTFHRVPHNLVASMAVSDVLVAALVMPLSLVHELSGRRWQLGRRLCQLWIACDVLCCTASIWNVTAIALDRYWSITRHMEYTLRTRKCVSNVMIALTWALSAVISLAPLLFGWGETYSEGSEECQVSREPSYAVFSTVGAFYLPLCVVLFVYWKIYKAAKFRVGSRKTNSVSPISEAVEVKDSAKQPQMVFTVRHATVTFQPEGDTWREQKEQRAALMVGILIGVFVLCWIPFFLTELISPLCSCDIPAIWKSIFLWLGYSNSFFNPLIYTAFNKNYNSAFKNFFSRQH

[2] = molecular target: Delta-type opioid receptor (Homo sapiens, UniProt P41143); assay: Counterscreen for agonists of heterodimerization of the mu 1 (OPRM1) and delta 1 (OPRD1) opioid receptors: Luminescence-based cell-based high throughput dose response assay to identify agonists of OPRD1 homodimerization. [Related pubchem assays (depositor defined):AID504326, AID504355, AID504692, AID504904, AID504905]; format: functional
Delta-type opioid receptor, sequence (P41143 whole entry): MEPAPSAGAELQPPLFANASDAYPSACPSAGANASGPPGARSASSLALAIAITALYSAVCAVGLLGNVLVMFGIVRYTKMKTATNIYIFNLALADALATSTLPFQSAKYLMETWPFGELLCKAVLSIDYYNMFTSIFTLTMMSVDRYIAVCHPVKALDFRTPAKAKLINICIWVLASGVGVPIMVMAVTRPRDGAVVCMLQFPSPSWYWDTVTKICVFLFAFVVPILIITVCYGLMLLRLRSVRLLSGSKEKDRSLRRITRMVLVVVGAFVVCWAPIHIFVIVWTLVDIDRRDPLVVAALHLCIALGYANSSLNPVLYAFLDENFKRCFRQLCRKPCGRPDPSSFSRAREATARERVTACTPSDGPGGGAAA

[3] = molecular target: T1, Short transient receptor potential channel 4 (Mus musculus, UniProt Q9QUQ5); assay: calcium entry via TRPC4 opening agents – cell-based, HEK293 TRPC4/mu-opioid, Fluo-4 calcium, dose response (AID 434937); format: functional
T1 sequence (Q9QUQ5 whole entry): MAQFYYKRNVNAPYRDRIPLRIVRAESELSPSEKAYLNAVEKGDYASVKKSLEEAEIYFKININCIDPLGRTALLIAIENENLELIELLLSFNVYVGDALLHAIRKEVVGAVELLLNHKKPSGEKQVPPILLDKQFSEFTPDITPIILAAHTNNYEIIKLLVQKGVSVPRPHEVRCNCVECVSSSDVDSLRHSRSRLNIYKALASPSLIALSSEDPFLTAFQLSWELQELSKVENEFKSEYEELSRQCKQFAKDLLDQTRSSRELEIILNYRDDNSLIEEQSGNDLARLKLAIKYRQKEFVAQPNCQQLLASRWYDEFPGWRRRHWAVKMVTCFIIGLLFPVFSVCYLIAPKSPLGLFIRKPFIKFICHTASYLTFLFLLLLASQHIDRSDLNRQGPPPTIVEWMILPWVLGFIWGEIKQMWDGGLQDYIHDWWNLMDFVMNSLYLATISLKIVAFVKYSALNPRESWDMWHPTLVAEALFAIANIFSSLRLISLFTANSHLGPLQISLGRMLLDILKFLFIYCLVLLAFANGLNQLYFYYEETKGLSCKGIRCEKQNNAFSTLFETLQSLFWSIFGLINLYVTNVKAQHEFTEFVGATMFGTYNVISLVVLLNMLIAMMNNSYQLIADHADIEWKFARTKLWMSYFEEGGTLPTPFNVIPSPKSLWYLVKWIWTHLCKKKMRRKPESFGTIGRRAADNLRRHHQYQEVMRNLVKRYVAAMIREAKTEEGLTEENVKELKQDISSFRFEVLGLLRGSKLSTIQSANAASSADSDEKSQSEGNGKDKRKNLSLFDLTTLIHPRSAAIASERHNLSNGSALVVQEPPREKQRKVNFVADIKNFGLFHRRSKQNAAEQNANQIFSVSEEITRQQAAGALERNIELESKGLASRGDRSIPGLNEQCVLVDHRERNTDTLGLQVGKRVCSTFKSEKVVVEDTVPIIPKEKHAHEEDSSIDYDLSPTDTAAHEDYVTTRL

Mu-type opioid receptor = Mu-type opioid receptor (Homo sapiens, UniProt P35372); assay: Counterscreen for agonists of heterodimerization of the mu 1 (OPRM1) and delta 1 (OPRD1) opioid receptors: Luminescence-based cell-based high throughput dose response assay to identify agonists of OPRM1 homodimerization.; format: functional;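 further: U2OS cells expressing OPRM1 and beta-arrestin as split beta-galactosidase partners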
Mu-type opioid receptor, sequence (P35372 whole entry): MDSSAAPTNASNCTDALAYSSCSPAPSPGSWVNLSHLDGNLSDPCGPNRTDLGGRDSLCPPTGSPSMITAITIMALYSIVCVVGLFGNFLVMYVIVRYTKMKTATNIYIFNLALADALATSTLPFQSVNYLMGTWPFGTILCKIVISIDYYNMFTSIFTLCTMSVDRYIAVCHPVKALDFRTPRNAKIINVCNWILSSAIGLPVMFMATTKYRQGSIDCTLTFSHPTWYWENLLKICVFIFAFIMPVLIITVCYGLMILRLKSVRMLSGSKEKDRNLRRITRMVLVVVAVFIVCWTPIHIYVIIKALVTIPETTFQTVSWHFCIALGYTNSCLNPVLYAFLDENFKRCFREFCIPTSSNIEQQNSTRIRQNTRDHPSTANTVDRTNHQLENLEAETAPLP

[4] = NIH-3T3 fibroblast cytotoxicity, dose response, cytotoxicity control, cell-based, fluorescence, Alamar Blue, secondary assay (AID 2327); format: functional;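 further: NIH-3T3 mouse fibroblasts cultured with fluconazole at 8 µg/mL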
[5] = molecular target: ATP-dependent molecular chaperone HSP82 (Candida albicans (strain WO-1) (Yeast), UniProt C4YTQ8); assay: steroid-induced GRE reporter decrease in yeast – S. cerevisiae, luminescence, Hsp90 inhibitor project, dose response (AID 2400); format: functional, cell-based;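 further: beta-galactosidase luminescence from glucocorticoid response element reporter as proxy for Hsp90 function; inhibitor potency where signal loss means Hsp90 inhibition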
ATP-dependent molecular chaperone HSP82, sequence (C4YTQ8 whole entry): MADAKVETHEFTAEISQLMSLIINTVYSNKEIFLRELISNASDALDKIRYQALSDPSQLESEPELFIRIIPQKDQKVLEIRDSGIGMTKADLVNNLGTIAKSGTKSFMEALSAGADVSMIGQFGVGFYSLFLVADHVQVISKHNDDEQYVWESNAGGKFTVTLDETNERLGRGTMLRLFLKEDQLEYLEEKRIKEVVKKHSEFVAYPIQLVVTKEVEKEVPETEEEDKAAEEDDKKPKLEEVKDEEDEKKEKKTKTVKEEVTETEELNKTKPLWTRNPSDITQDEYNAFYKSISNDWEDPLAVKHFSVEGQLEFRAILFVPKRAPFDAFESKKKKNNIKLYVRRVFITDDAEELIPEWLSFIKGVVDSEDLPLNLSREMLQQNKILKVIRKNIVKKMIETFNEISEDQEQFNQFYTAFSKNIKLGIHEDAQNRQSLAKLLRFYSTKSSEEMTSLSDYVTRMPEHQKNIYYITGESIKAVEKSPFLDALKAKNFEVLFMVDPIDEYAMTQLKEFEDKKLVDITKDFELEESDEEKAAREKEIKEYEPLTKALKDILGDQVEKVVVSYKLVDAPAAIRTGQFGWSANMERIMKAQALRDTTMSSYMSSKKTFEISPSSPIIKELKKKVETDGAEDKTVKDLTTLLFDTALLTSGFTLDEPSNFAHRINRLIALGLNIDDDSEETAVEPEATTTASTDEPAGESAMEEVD

[6] = fluconazole-exposed Candida albicans growth modulators – fluorescence, retest, confirmation (AID 2467); format: functional, cell-based
[7] = molecular target: T2, Serine/threonine-protein phosphatase (Candida dubliniensis (strain CD36 / CBS 7987 / NCPF 3949 / NRRLY-17841) (Yeast), UniProt B9W6M3); assay: blockers of CaCl2-induced CDRE-lacZ signaling – S. cerevisiae, luminescence, secondary, dose response (AID 2388); format: functional, cell-based;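 further: yeast reporter cells carrying a calcineurin-responsive lacZ construct stimulated with calcium chloride; luminescent beta-galactosidase reporter signal in whole cells rather than isolated phosphatase activity; potency for inhibition where a drop in reporter signal means calcineurin blockade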
T2 sequence (B9W6M3 whole entry): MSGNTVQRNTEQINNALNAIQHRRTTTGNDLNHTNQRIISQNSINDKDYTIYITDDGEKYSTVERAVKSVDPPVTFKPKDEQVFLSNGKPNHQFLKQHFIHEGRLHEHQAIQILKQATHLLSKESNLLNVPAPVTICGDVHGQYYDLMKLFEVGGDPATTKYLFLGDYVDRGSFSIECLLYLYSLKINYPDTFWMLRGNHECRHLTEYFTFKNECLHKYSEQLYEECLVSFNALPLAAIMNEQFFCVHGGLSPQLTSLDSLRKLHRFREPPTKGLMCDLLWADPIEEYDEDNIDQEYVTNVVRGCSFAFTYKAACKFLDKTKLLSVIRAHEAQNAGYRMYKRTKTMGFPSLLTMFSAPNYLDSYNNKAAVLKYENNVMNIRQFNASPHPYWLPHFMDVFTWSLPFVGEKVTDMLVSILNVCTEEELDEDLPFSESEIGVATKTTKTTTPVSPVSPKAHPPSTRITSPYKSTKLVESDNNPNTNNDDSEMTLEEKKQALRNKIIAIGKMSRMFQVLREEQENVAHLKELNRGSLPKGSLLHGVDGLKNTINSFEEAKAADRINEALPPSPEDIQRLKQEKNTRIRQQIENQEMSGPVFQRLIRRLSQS

[8] = off-target signal loss in HeLa-CEM21 co-culture – HeLa F-luc CTL cells, cherry-picked, counter-screen for HIV-1 Env fusion inhibitor project, dose response (AID 652040); format: functional, cell-based;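 further: potency for signal decrease marking cytotoxic or nonspecific inhibition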
[9] = HIV-1 AD8 envelope cell-cell fusion blockers – cherry-pick, dose response (AID 652062); format: functional, cell-based;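 further: luciferase signal from cell-cell fusion driven by HIV-1 clade B AD8 Env; potency is for inhibitors of fusion seen as a drop in luminescence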
[10] = blockers of HIV-1 envelope-mediated cell-cell fusion – cherry-pick, dose response (AID 652057); format: functional, cell-based
[11] = molecular target: T3, Carboxy-terminal domain RNA polymerase II polypeptide A small phosphatase 1 (Homo sapiens, UniProt Q9GZU7); assay: CTDSP1 inhibitors, concentration-response, biochemical, absorbance readout, ultra-high-throughput screen actives (AID 540297); format: functional
T3 sequence (Q9GZU7 whole entry): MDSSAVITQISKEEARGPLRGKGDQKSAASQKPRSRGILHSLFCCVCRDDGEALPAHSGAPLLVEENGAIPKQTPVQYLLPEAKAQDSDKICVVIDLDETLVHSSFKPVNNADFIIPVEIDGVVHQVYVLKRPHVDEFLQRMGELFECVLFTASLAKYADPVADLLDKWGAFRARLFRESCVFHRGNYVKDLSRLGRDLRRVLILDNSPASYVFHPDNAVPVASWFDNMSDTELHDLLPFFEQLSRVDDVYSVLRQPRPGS

In the case of COc1cccc(/C=C2/SC(=S)N(CCC(=O)N3CCOCC3)C2=O)c1, the CC50 (Vero) was 20.1 µM (active).
For Cc1ccccc1[N+]1=C2SCCN2C(O)(c2ccccc2)C1 (configuration not stated), the EC50 [1] was > 92.5 µM (inactive), the EC50 [2] was > 92.5 µM (inactive) and the EC50 [3] was 0.335 µM (active). For the same molecule, the EC50 (Mu-type opioid receptor) was 18.7 µM (inactive).
For O=c1c2ccc(Cl)cc2[nH]c(=S)n1Cc1cccnc1, the EC50 [1] was > 92.5 µM (inactive), the EC50 [2] was 43.2 µM (inactive) and the EC50 (Mu-type opioid receptor) was 65.6 µM (inactive).
In the case of CCNc1nc(NC(C)C)nc(NC(C)(C)C)n1, the EC50 [4] was > 150 µM (inconclusive), the EC50 [5] was > 160 µM (inactive) and the EC50 [6] was 0.11 µM (active). The EC50 [7] was > 180 µM (inactive).
In the case of CSc1cccc(N2CC(C(=O)Nc3cccc(S(=O)(=O)N4CCCC4)c3)CC2=O)c1 (configuration not stated), the AC50 [8] was > 70 µM (inactive), the AC50 [9] was 11.7 µM (active) and the AC50 [10] was 17.8 µM (active). The IC50 [11] was 6.81 µM (active).
In the case of CC(=O)Nc1ccc(S(=O)(=O)NCCC(=O)OCC(=O)N2CCN(C(=O)c3ccco3)CC2)cc1, the IC50 [11] was 10.3 µM (active).
